Measurements: patent US8263642B2, “Antimicrobial compounds and methods of use thereof” (Vanderbilt University, priority 2008, dated 2012)

Columns and labels:
[1] = tested on: HssRS-dependent hrtAB expression; assay: Luminescence-based assay to monitor HssRS-dependent hrtAB expression (phrtABlux reporter), Newman; type: cell-based, Staphylococcus aureus; conditions: Newman; for Luminescence: raw luminescence value obtained in a luminometer; for activation at 0.0825 µM: Staphylococcus aureus, NEWMAN, read-out: % Lumi, luminescence induced by the compound compared to the heme control (82.5 nM) in the same plate
Procedure: (§1) With reference to Table 1, “Luminescence” refers to the raw luminescence value obtained in a luminomter. “Control (82.5 nm)” refers to the luminescence value obtained from heme at 82.5 nM as a positive control in the same plate as the experimental. “% lum” is the percentage of luminescence induced by the compound as compared to the heme control in the same plate. […] All of these assays are described in the application. […] “N/T” indicates the test was not performed.
A hrtAB-driven expression system was created in the pXen vector system (Xenogen) (Francis, K. P., D. Joh, C. Bellinger-Kawahara, M. J. Hawkinson, T. F. Purchio, and P. R. Contag. 2000. Monitoring bioluminescent Staphylococcus aureus infections in living mice using a novel luxABCDE construct. Infect Immun 68:3594-3600). This vector contains a promoterless luxCDABE operon from Photorabdus luminescens which produces blue green light when expressed. The luxCDABE encodes for a fatty acid reductase (LuxCDE) that produces a long chain fatty aldehyde which, when combined with cellular flavin mononucleotide, is oxidized by a luciferase (LuxAB) to produce light. Therefore, this system is useful in that it bypasses the need for substrate addition and is capable of generating light in the absence of any added reagents. Furthermore, the luminescent signal produced by the combined activities of LuxAB and LuxCDE is of sufficient intensity to be visualized in unmanipulated intact bacteria.
To establish an assay that measures HssRS-dependent expression of luxCDABE, the promoter for hrtAB upstream of luxCDABE was cloned and transformed this vector (phrtABlux) into wildtype and ΔhssR S. aureus. A promoterless vector (plux) and a plasmid containing luxCDABE under the control of a constitutive promoter (psrtAlux) (Mazmanian, S. K., G. Liu, H. Ton-That, and O. Schneewind. 1999. “Staphylococcus aureus sortase, an enzyme that anchors surface proteins to the cell wall.” Science 285:760-763) were included as negative and positive controls, respectively. Initially, wildtype S. aureus harboring either plux, phrtABlux, or psrtAlux were plated on solid medium that either lacked heme or contained 4 μM heme. Only wildtype S. aureus containing psrtAlux produced light on solid media regardless of the presence or absence of heme. […] Light was not produced by bacteria containing plux in either condition.
To adapt this system for a HTS to measure ligand recognition by HssRS, luminescence of wildtype and ΔhssR harboring the above listed plasmids in liquid media with or without heme was measured. […] Taken together, these experiments establish a whole cell […] assay that can identify small molecule modifiers of HssRS. This screen, in some aspects, can identify molecules that can be used as molecular probes in structure-function analyses to determine the mechanism by which S. aureus sense host heme.
Upon staphylococcal exposure to heme, HssRS senses heme and activates expression of hrtAB. This process can be measured using a reporter assay that employs a vector encoding the light-producing luxCDABE operon under the control of the hrtAB promoter. This assay results in whole cell luminescence upon HssRS-dependent activation of hrtAB, forming the foundation for the development of an assay suitable for high-throughput screens for small molecule activators of HssRS.
To develop an automated HTS format, S. aureus wildtype and ΔhssR harboring reporter constructs (psrtAlux, phrtAlux, plux) can be grown for 15 hours at 37° C. in tryptic soy broth (TSB) containing 10 μg/ml chloramphenicol. The addition of chloramphenicol is useful to ensure that the staphylococci propagate the reporter plasmid upon cell division. Following growth, bacterial cultures can be normalized and 2×10^7 cells (approximately 2 μl) can be added to individual wells of black walled, clear bottomed, 96-well plates. […]

[2] = tested on: hrtAB-driven expression of the xylE reporter gene; assay: XylE reporter assay (hrtAB promoter-xylE), Newman; type: cell-based, Staphylococcus aureus; conditions: for XylE (0.5): level of XylE induction at 0.5 uM of the compound; for XylE (5.0): level of XylE induction at 5.0 uM of the compound; for XylE (50.0): level of XylE induction at 50.0 uM of the compound; for XylE (0.05): level of XylE induction at 0.05 uM of the compound
Procedure: as §1
Compounds that activate HssRS-driven hrtAB expression in the luciferase-based screen can be subjected to two separate counter screens to confirm these compounds as active hits. First, compounds of interest can be tested for their ability to activate expression of hrtAB in the XylE expression assay described hereinbelow. This is an in vitro assay that measures hrtAB-driven expression of the xylE reporter gene. The XylE-based reporter assay utilizes slightly more manipulations than the primary luciferase-based screen. […] It should be appreciated that a shortcoming of this counter screen is that it measures reporter gene expression, which is a similar activity as that measured in the primary assay. To address this shortcoming, compounds that are positive in both XylE- and luciferase-based assays can be subjected to a second counter screen as described hereinbelow.
S. aureus strains harboring the appropriate reporter construct were inoculated into 500 μl of TSB containing 10 μg/ml chloramphenicol in 1.5 ml tubes. Cultures were grown O/N at 37° C. with shaking. Bacteria were pelleted by centrifugation and spent medium was aspirated. The pellet was washed once with 500 μl of 20 mM potassium phosphate, pH 7.6, and resuspended in 150 μl of 100 mM potassium phosphate buffer, pH 8.0, 10% (v/v) acetone, 25 μg/ml lysostaphin. After 20 minute incubation at 37° C. and 5 minute incubation on ice, samples were centrifuged at 20,000 g for 30 minutes at 4° C. 1-10 μl of supernatant was added to a 96-well plate and 200 μl of 100 mM potassium phosphate, pH 8.0, 0.2 mM pyrocatechol was added to each well. Formation of 2-hydroxymuconic semialdehyde was tracked by measuring the absorbance at 375 nm every minute for 30 minutes on a Varian MP 50 microplate reader. Protein concentration in samples was determined by BCA (Pierce). One unit of specific activity of XylE in a sample is defined as the formation of 1 nmol of 2-hydroxymuconic semialdehyde per minute per milligram of cellular protein at 30° C. (Chien, Y., Manna, A. C., Projan, S. J., and Cheung, A. L. 1999, “SarA, a global regulator of virulence determinants in Staphylococcus aureus, binds to a conserved motif essential for sar-dependent gene regulation. J. Biol. Chem. 274, 37169-37176).
The hrtAB intergenic region was fused to the xylE structural gene by PCR-SOE. In the first reaction, primer P1B:[…] and P2B:[…] were used to amplify the hrtAB intergenic region from S. aureus strain Newman genomic DNA. In the second PCR reaction primers P3B:[…] and P4B:[…] were used to amplify the xylE structural gene using pALC1639 template DNA (provided by Dr. Ambrose Cheung) and PCR product purified using a Qiagen gel extraction kit. For the PCRSOE reaction, a 1:300 dilution of purified reaction 1 and reaction 2 PCR products was mixed and amplified by PCR using […]. This yielded a construct in which the hrtAB intergenic region is fused to the xylE gene in such a manner that the position of the start codon for xylE corresponds to the position of the start codon for […] in the hrtAB locus. The hrtAB promoter-xylE fusion DNA was then subcloned into pOS1. As a control we also constructed a promoterless xylE vector. The xylE gene was amplified from pACL1639 template DNA using the primers P1C:[…] and P2C:[…] and then cloned into the pOS1 vector.

| SMILES | Luminescence [1] | XylE (0.5) [2] | XylE (5.0) [2] | XylE (50.0) [2] | XylE (0.05) [2] | activation at 0.0825 µM [1] |
| --- | --- | --- | --- | --- | --- | --- |
| COc1ccccc1-c1csc(NC(=O)c2ccc(-c3ccccc3)cc2)n1 | 1704 | 0.05 | 1 | 1 |  |  |
| O=C(Nc1ccc(-c2csc(Nc3cccc(Cl)c3)n2)cc1)c1ccccc1 | 3586 | 0.07 | 1 | 0.08 | 1 |  |
| Cc1ccc(-c2nc(Nc3ccc4c(c3)OCO4)c3ccccc3n2)cc1 | 2101 | 0.04 | 0 | 0 |  |  |
| COc1ccc(Br)cc1C(=O)NC(=S)Nc1cc(C)c(C)cc1O [drawing 24] | 946 | 0.3 | 0.09 | 0.3 | 0.07 | 227% |
| O=C(Nc1c2c(nn1-c1ccc(Cl)cc1)CSC2)c1cccc(C(F)(F)F)c1 | 2866 | 0.03 | 0.04 | 0.06 |  |  |
| COc1ccc(OC(=O)c2ccc(N3C(=O)C4C5CCC(C5)C4C3=O)cc2)cc1 (stereo not drawn) | 3096 | 0.09 | 0.03 | 0.02 |  |  |
| O=c1c2ccccc2nc(/C=C\c2ccccc2F)n1-c1ccccc1F | 3115 | 1 | 0 | 0 |  |  |
| O=C(NC(=S)Nc1ccc(-c2nc3ccccc3s2)cc1)c1ccccc1[N+](=O)[O-] [drawing 61] | 1794 | 0.7 | 0.8 | 0.8 | 0.1 |  |
| O=C(Nc1ccc(/N=N/c2ccccc2)cc1)c1cccnc1 | 3086 | 1 | 1 | 0.7 | 0 |  |
| CC1(C)CC(=O)C(=CNCc2ccc(F)cc2)C(=O)C1 | 1003 | 0.09 | 0.9 | 0.06 | 0.07 | 120% |
| COC(=O)CCNc1nc(-c2ccc(Br)cc2)nc2ccccc12 | 1714 | 0.03 | 0.02 | 0.8 |  | 484% |
| C/C(=N/NC(=O)c1cccc(I)c1)c1ccccc1O | 5542 | 0.03 | 0.04 | 0.3 | 1 |  |
| Cc1ccc(CNC(=O)c2ccc(CSCc3ccccc3Cl)o2)cc1 | 1603 | 0.08 | 0.7 | 0.8 |  | 192% |
| Oc1ccc(CCNC2CCCc3c2[nH]c2ccc(-c4ccccc4)cc32)cc1 (stereo not drawn) | 534 | 0.02 | 1 | 1 | 0.06 | 127% |
| COc1ccccc1N1C(=O)c2ccc(C(=O)OC(C)C(=O)c3ccc(C)cc3)cc2C1=O (stereo not drawn) | 3189 | 0.6 | 0.7 | 1 | 1 |  |
| O=C(NC(=S)Nc1ccc(Oc2ccccc2)cc1)c1cccs1 | 1774 | 0.01 | 0.09 | 0.01 |  | 415% |
| Cc1cccc(NC(=S)N/N=C/c2cc(Br)ccc2O)c1 | 589 | 0.2 | 0 | 0 | 0.09 | 161% |
| O=[N+]([O-])c1ccc(O)c(C2NN=C(Cc3ccccc3)S2)c1 (stereo not drawn) | 2805 | 0.05 | 1 | 1 | 0.02 | 871% |
